Assay results taken from PubChem BioAssay (NCI).
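Growth conditions: 96-well plates. Treatment: test compound, 48 hours, 5 concentrations. Analysis: linear interpolation between bracketing concentrations; unreached endpoints set to highest concentration. At the TGI there is no net growth.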

What was measured:
Experiment in all cases: DTP human tumour cell line panel, 48 h
CCRF-CEM leukemia = test system: CCRF-CEM leukemia
DU-145 prostate = test system: DU-145 prostate
HL-60(TB) leukemia = test system: HL-60(TB) leukemia
HOP-62 NSCLC = test system: HOP-62 NSCLC
LOX IMVI melanoma = test system: LOX IMVI melanoma
OVCAR-5 ovarian = test system: OVCAR-5 ovarian
OVCAR-8 ovarian = test system: OVCAR-8 ovarian
SK-MEL-2 melanoma = test system: SK-MEL-2 melanoma
SNB-75 CNS = test system: SNB-75 CNS
SR leukemia = test system: SR leukemia
SW-620 colon = test system: SW-620 colon
U251 CNS = test system: U251 CNS

Structure (SMILES) | TGI (CCRF-CEM leukemia) [µM] | TGI (DU-145 prostate) [µM] | TGI (HL-60(TB) leukemia) [µM] | TGI (HOP-62 NSCLC) [µM] | TGI (LOX IMVI melanoma) [µM] | TGI (OVCAR-5 ovarian) [µM] | TGI (OVCAR-8 ovarian) [µM] | TGI (SK-MEL-2 melanoma) [µM] | TGI (SNB-75 CNS) [µM] | TGI (SR leukemia) [µM] | TGI (SW-620 colon) [µM] | TGI (U251 CNS) [µM]
CC1(C)CC2(C)ON=C(c3ccccc3)N2c2ccccc2N1 (centres undefined) | > 100 | > 100 | 56.4 | 37 | 33.8 | > 100 | > 100 | 40.1 | 94.9 | > 100 | > 100 | 41.1
COC(=O)CCC(C)[C@H]1CCC2C3C(C[C@H](OC(C)=O)[C@@]21C)[C@@]1(C)CCC2(C[C@H]1C[C@H]3OC(C)=O)OOC1(CCCCC1)OO2 (some centres undefined) | > 100 | > 100 | > 100 | 8.31 | > 100 | > 100 | > 100 | > 100 | 79.3 | > 100 | > 100 | > 100
